Assay results from article PMC3466195, “Potassium Acts as a GTPase-Activating Element on Each Nucleotide-Binding Domain of the Essential Bacillus subtilis EngA” (PLoS ONE, 2012).
Like-named read-outs stand apart in the source and are kept apart here.

Tests used:
[1] = biological target: S. typhimurium EngA; parameters: method as in PMID 17905831; conditions: cited from earlier work
[2] = biological target: T1, GD2-KH (shortened B. subtilis EngA variant) (Bacillus subtilis, UniProt P50743); test: Nucleotide binding monitored by intrinsic tryptophan fluorescence
T1 construct: two shortened EngA variants that only contain GD1 or GD2-KH; His-tag (from pET15b; purified on Ni-IDA) (N); made in house; host or cells: E. coli C41(DE3)
Method: (§1) Fluorescence measurements were performed essentially as described previously for the unmodified nucleotides or the N-methylanthraniloyl-GDP (MANT-GDP) analogue using a PTI QuantaMaster 4 spectrofluorimeter, [62]. Dissociation constants (K D) for nucleotides were calculated by monitoring intrinsic tryptophan fluorescence variation using 295 nm excitation wavelength, with a slit width of 2 nm, and scanning emission fluorescence between 310 and 400 nm (for the unmodified nucleotide) or 400 and 500 nm (for MANT-GDP), with a slit width of 4 nm. For the intrinsic tryptophan fluorescence, inner filter effect was corrected using N-Acetyltryptophanamide (NATA) as a reference. 1 µM NATA or 0.5 µM of YphC were mixed with 50 mM Tris/HCl pH 8, 2 mM MgCl2, NaCl or KCl and increasing amount of nucleotide (GDP, GMPPNP or MANT-GDP), as indicated in the figure legends. The fluorescence was normalized respective to the integrated value of the fluorescence peak obtained in the absence of unmodified nucleotide (between 310 and 400 nm) or MANT-GDP (between 400 and 500 nm). The data were fitted using the GraFit 5.0.11 software with the following equation: [drawing 1] where F is the relative fluorescence intensity in the presence of nucleotide, F min is the relative fluorescence in the absence of nucleotide, F max is the fluorescence intensity at saturating concentration of nucleotide, L is the nucleotide concentration, E is the protein concentration and K D is the dissociation constant of the protein-nucleotide complex.

[3] = biological target: T2, B. subtilis EngA (Bacillus subtilis, UniProt P50743); test: as above
T2 construct: full-length EngA (named hereafter as EngA) and its two shortened EngA variants, GD1 and GD2-KH were overexpressed in E. coli; His-tag (from pET15b; purified on Ni-IDA) (N); made in house; host or cells: E. coli C41(DE3)
T2 sequence (P50743 1-436): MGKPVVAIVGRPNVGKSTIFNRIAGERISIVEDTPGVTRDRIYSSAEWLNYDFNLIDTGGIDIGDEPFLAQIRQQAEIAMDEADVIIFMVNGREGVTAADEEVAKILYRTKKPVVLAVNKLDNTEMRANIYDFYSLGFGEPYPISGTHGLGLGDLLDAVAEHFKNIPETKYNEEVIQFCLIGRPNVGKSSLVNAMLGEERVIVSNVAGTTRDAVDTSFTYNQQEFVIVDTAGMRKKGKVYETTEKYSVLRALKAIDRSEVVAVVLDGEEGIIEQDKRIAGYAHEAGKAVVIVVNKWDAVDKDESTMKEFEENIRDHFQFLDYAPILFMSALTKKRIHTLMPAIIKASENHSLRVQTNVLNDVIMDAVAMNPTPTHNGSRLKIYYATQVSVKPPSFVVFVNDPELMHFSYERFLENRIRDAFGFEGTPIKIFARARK
Method: as §1

[4] = biological target: T3, GD1 (shortened B. subtilis EngA variant) (Bacillus subtilis, UniProt P50743); test: as above
T3 construct: two shortened EngA variants that only contain GD1 or GD2-KH; His-tag (from pET15b; purified on Ni-IDA) (N); made in house; host or cells: E. coli C41(DE3)
Method: as §1

[5] = biological target: T4, GD2-KH (Bacillus subtilis, UniProt P50743); test: Fluorescence-based Thermal Shift Assay (TSA); assay type: binding; conditions: for Tm: GD2-KH with 1 mM nucleotide, no effector Tm 42.8
T4 construct: two shortened EngA variants that only contain GD1 or GD2-KH; His-tag (from pET15b; purified on Ni-IDA) (N); made in house; host or cells: E. coli C41(DE3)
T4 sequence (P50743 173-436): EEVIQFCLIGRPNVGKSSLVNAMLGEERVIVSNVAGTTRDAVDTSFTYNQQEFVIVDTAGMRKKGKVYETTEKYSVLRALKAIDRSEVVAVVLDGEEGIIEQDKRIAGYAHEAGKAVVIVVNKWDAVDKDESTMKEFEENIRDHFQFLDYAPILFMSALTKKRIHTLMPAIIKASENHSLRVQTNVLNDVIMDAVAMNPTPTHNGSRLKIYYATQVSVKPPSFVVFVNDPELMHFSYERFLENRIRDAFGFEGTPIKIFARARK
Method: (§2) Assays were performed into a 96-well thin-wall PCR plate (BioRad) using an IQ5 96-well format real-time PCR instrument (Bio-Rad) over a temperature range from 20°C to 90°C with temperature increments of 0.2°C [64]. Assay samples (23 µl) contained 50 mM Tris/HCl pH 8, 0.5 mg/ml of EngA or 1.5 mg/ml of GD1 or GD2-KH, and concentration of salt and/or nucleotides as indicated, and 2 µl of SYPRO Orange solution (Molecular Probes, Eugene, OR, 500x in DMSO diluted 5 times in water) was added. The plates were heated and changes in fluorescence for the environmentally sensitive dye SYPRO Orange were monitored through a charge-coupled device (CCD) camera. The melting temperature (Tm) values for each protein were determined graphically from the fluorescence first derivative of the melting curves. The wavelengths for excitation and emission were 470 nm and 570 nm, respectively.

[6] = biological target: T5, GD1 (Bacillus subtilis, UniProt P50743); test: Fluorescence-based Thermal Shift Assay (TSA); assay type: binding; conditions: for Tm: GD1 with 1 mM nucleotide, no effector Tm 51
T5 construct: two shortened EngA variants that only contain GD1 or GD2-KH; His-tag (from pET15b; purified on Ni-IDA) (N); made in house; host or cells: E. coli C41(DE3)
T5 sequence (P50743 4-167 limits assumed): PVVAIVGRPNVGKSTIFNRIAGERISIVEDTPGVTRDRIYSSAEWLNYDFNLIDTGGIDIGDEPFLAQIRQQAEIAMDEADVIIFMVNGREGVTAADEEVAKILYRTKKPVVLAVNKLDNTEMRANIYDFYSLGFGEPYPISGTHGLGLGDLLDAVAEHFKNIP
Method: as §2

[7] = biological target: T6, EngA (Bacillus subtilis, UniProt P50743); test: Fluorescence-based Thermal Shift Assay (TSA); assay type: binding; conditions: EngA with 1 mM nucleotide; no effector Tm 41.5
T6 construct: full-length EngA (named hereafter as EngA) and its two shortened EngA variants, GD1 and GD2-KH were overexpressed in E. coli; His-tag (from pET15b; purified on Ni-IDA) (N); made in house; host or cells: E. coli C41(DE3)
T6 sequence (P50743 1-436): T2 sequence (P50743 1-436)
Method: as §2

[8] = test system: M. smegmatis EngA; parameters: method as in PMID 22506030; conditions: cited from earlier work
[9] = biological target: T7, B. subtilis EngA (Bacillus subtilis, UniProt P50743); assay type: biochemical; conditions: for Km / Vmax / kcat: GTP hydrolysis by EngA; for kcat: fitted; for GTPase activity corresponding to 100%: wild-type EngA, 300 mM KCl
T7 construct: full-length EngA (named hereafter as EngA) and its two shortened EngA variants, GD1 and GD2-KH were overexpressed in E. coli; His-tag (from pET15b; purified on Ni-IDA) (N); made in house; host or cells: E. coli C41(DE3)
Method: (§3) GTPase activities were determined using a coupled-enzymatic assay containing pyruvate kinase and lactate dehydrogenase as previously described. The proteins (2 µM or 8 µM of EngA in the presence of KCl or NaCl, respectively, and 4 µM for GD1 and 12.5 µM for GD2-KH) and the coupled assay system containing 50 mM Tris/HCl pH 8, 4 mM phosphoenol pyruvate, 0.4 mM NADH, 1 mM MgCl2, 30 µg pyruvate kinase and 15 µg lactate dehydrogenase, were mixed into a quartz cuvette (final volume of 750 µl) in the presence of GTP (up to 1 mM) and salts, either KCl or NaCl, as indicated in the figure legends. When the GTPase and XTPase activities of the wild-type EngA and the single point mutants were studied (Fig. 7), the assay medium (final volume of 500 µl) contained 3 mM MgCl2 and the pyruvate kinase was increased to 120 µg to ensure an immediate conversion of XDP back into XTP. The reaction was started by adding 3.2 µM or 0.8 µM of wild-type EngA or single point mutants in the absence or presence of 300 mM K^+, respectively. GTP or XTP hydrolysis was monitored by following the change in absorbance at 340 nm upon conversion of NADH to NAD^+, for 10 min at 37°C, using either a Hitachi U3350 or a Safas UVmc^2 spectrophotometer. The slope measured (ΔDO/min) was used to calculate the activity of the protein taking into account the εNADH340nm = 6220 l.mol^−1.cm^−1. Control experiments were systematically performed in the absence of nucleotides (protein alone) or in the absence of proteins (nucleotides alone) and the activities measured in all cases were negligible. Between many different EngA preparations, the specific activities measured at 1 mM GTP varied between 100–130 nmoles/min/mg protein.

[10] = biological target: T4, GD2-KH; test: GTP hydrolysis coupled-enzymatic assay; assay type: biochemical; conditions: for GTPase activity: GD2-KH
Method: as §3

[11] = biological target: T5, GD1; test: GTP hydrolysis coupled-enzymatic assay; assay type: biochemical
Method: as §3

[12] = test system: E. coli EngA; parameters: method as in PMID 16963571; conditions: cited from earlier work
[13] = test system: T. maritima EngA; conditions: cited from earlier work
[14] = biological target: T2, B. subtilis EngA; test: Fluorescence resonance energy transfer between tryptophan residues and MANT moiety; assay type: binding; conditions: FRET Trp to MANT
Method: as §1, with “1 µM NATA or 0.5 µM of YphC were mixed with 50 mM Tris/HCl pH 8, 2 mM MgCl2, NaCl or KCl and increasing amount of nucleotide (GDP, GMPPNP or MANT-GDP), as indicated in the figure legends.” left out

Nc1nc2c(ncn2[C@@H]2O[C@H](COP(=O)(O)OP(=O)(O)O)[C@@H](O)[C@H]2O)c(=O)[nH]1 [GDP]
Kd ([1]; both G-domains): 1 to 3 µM
Kd ([2]; 300 mM KCl): 2.9 ± 0.8 µM
Kd ([2]; 300 mM NaCl): 1.6 ± 0.2 µM
Kd ([3]; KD, 300 mM KCl): 16.3 ± 2.3 µM
Kd ([3]; KD, 300 mM NaCl): 12.8 ± 2.9 µM
Kd ([3]; KD, no salt (absence of K+), 2 mM MgCl2, 25°C): 8 ± 1 µM
Kd ([4]; GD1, 300 mM KCl): 4.5 ± 0.9 µM
Kd ([4]; GD1, 300 mM NaCl): 2.7 ± 0.4 µM
Tm [5]: 55.8 °C
ΔTm at 1000 µM ([5]; pH 8, read-out: Tm increase): ~13 °C
Tm [6]: 64 °C
ΔTm at 1000 µM ([6]; pH 8, read-out: Tm increase): ~13 °C
Tm [7]: 59.4 °C

Nc1nc2c(ncn2[C@@H]2O[C@H](COP(=O)(O)OP(=O)(O)NP(=O)(O)O)[C@@H](O)[C@H]2O)c(=O)[nH]1 [GMPPNP]
Kd ([2]; 300 mM KCl): 6.8 ± 2 µM
Kd ([2]; 300 mM NaCl): 15.2 ± 1.3 µM
Kd ([3]; 300 mM KCl, read-out: KD): 18.8 ± 2.8 µM
Kd ([3]; 300 mM NaCl, read-out: KD): 16.5 ± 3.7 µM
Kd ([3]; no salt (absence of K+), 2 mM MgCl2, 25°C, read-out: KD): 25.7 ± 2.8 µM
Kd ([4]; GD1, 300 mM KCl): 35.7 ± 4.9 µM
Kd ([4]; GD1, 300 mM NaCl): 17.8 ± 2.4 µM
Tm [5]: 48.3 °C
Tm [6]: 55.5 °C
Tm [7]: 48.8 °C

Nc1nc2c(ncn2[C@@H]2O[C@H](COP(=O)(O)OP(=O)(O)OP(=O)(O)O)[C@@H](O)[C@H]2O)c(=O)[nH]1 [GTP]
Km ([8]; GTP, M. smegmatis EngA): 39 µM
kcat ([8]; absence of K+): 8.3e-05 s⁻¹
specific activity ([9]; 1 mM GTP, different EngA preparations): 100–130 nmoles/min/mg protein
GTPase activity (kcat) ([9]; EngA, absence of K+): 0.005 to 0.0083 s⁻¹
Km ([9]; 300 mM K+): 153 µM
Vmax ([9]; 300 mM K+): 144.5±3.4 nmol/min/mg protein
kcat ([9]; 300 mM K+): ~0.123 s⁻¹
Vmax ([9]; absence of K+): 6.1±0.2 nmol/min/mg protein
Km ([9]; no K+): 111 µM
kcat ([9]; no K+): ~0.005 s⁻¹
GTPase activity corresponding to 100% ([9]; 200 µM nucleotide): 77 µmol GTP hydrolyzed/min/mg proteins
GTPase activity corresponding to 100% ([9]; 1 mM GTP): 100 µmol GTP hydrolyzed/min/mg proteins
GTPase activity ([10]; absence of K+): 0.004 min⁻¹
GTPase activity ([11]; GD1, absence of K+): ~0.6 min⁻¹
kcat ([12]; 400 mM K+): 0.0193 s⁻¹
Km ([12]; GTP, E. coli EngA): 143 µM
Kd ([1]; higher-affinity site (proposed GD1)): ~12 µM
Kd ([1]; lower-affinity site (proposed GD2)): > 100 µM
kcat ([13]; 400 mM K+): 0.0145 s⁻¹
Km ([13]; GTP, T. maritima EngA): 110 µM

[K+] [K^+, potassium]
increase in catalytic efficiency of EngA ([9]; 300 mM K+ vs absence of K+): 20 fold
stimulation of the GTPase activity of EngA ([9]; 1 M KCl, 1 mM GTP): ~15 fold
GTPase activity ([9]; EngA, 0.4 M KCl): ~5 min⁻¹
GTPase activity ([10]; 1M KCl): ~0.45 min⁻¹
increase of GTPase activity upon K+ binding ([10]; GD2 domain): ~100 fold
K+ concentration giving maximal GTPase activity ([11]; GD1): 500 mM
GTPase activity ([11]; GD1, 1M KCl): ~3.4 min⁻¹
GTPase activity ([13]; 0.4 M KCl): 0.11 min⁻¹
stimulation of GTPase activity by K+ ([13]; T. maritima EngA): about 4 fold

CNc1ccccc1C(=O)O[C@H]1[C@@H](O)[C@H](n2cnc3c(=O)[nH]c(N)nc32)O[C@@H]1COP(=O)(O)OP(=O)(O)O [mant-GDP, N-methylanthraniloyl-GDP]
Kd ([14]; 300 mM KCl): 2.9 ± 0.2 µM
Kd ([14]; no salt): 3.1 ± 0.2 µM

[Na+] [sodium]
effect of salt on the GTPase activity of EngA ([9]; K+ replaced by other monovalent cation, 1 mM GTP): no effect
